Measured values from patent publication US6943162B2, “Piperazinyltriazines as estrogen receptor modulators” (SmithKline Beecham Corporation, priority 2001, dated 2005).
pKi: −log10 of the molar value. Read-outs that look alike come from different tables or passages of the source.

How the values were obtained:
ERα = target: T1, ERα (Homo sapiens, UniProt P03372); assay: Estrogen receptor competition binding assay (SPA, [3H]Estradiol), ERα; conditions: for Ki: competition binding assay, GST-hERα ligand binding domain, 1 nM [3H]Estradiol, (n) = number of determinations, read-out: Avg. ER α pKi (n) (converted)
T1 construct: GST (N); made in house; host or cells: E. coli BL21(DE3)pLysS
T1 sequence (P03372 311-547 limits assumed): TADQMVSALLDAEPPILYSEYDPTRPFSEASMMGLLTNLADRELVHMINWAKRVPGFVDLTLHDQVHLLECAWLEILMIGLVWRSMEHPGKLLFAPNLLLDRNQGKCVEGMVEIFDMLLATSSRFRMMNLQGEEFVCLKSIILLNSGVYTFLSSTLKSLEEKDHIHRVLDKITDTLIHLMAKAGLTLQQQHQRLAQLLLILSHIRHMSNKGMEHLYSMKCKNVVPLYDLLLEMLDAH
Description: (§1) The ligand binding domain of both ERα and ERβ were subcloned into pGEX-2T vector which had been modified to contain KpnI and BamHI restriction sites in the multiple cloning region. GST-hERα and GST-hERβ proteins were made by transforming BL21(DE3)pLYS S competent cells with the appropriate expression plasmid. […] The cells were collected by centrifugation and resuspended in lysis buffer (50 mM Tris pH 7.9; 250 mM KCl; 1% Triton X-100; 10 mM DTT; 1 mM PMSF). The lysate was then placed on dry ice until completely frozen. […] The supernatant was retained and glycerol was added to a final concentration of 10%. The protein content of the supernatant was quantitated using the BioRad Protein Assay Reagent The protein was then stored at −80° C. until used in the binding assay.
(§2) Polylysine coated Yttrium Silicate SPA beads (Amersham #RPNQ 0010) are resuspended in assay buffer [10 mM potassium phosphate buffer pH 7.0 containing 2 mM EDTA, 50 mM NaCl, 1 mM DTT, 2 mM CHAPS, 10% glycerol] to a concentration of 1 g/60 ml. […] [2, 4, 6, 7, 16, 17-3H(N)]-Estradiol is added as a 30 ul aliquot to give a final assay concentration of 1 nM. […] The plates are shaken vigorously for two hours then counted on a Packard TopCount using the protocol for counting tritium yttrium silicate SPA beads. Data analysis was done by standard methods. % Bound was calculated for each concentration of each test compound using the equation % Bound=100*((Test−NS)/(T−NS)). % Bound was plotted vs concentration and curve fitting was accomplished using non-linear regression.

ERβ = target: T2, ERβ (Homo sapiens, UniProt Q92731); assay: Estrogen receptor competition binding assay (SPA, [3H]Estradiol), ERβ
T2 construct: GST (N); made in house; host or cells: E. coli BL21(DE3)pLysS
Description: as §1, §2

T2 sequence (Q92731 264-498 limits assumed): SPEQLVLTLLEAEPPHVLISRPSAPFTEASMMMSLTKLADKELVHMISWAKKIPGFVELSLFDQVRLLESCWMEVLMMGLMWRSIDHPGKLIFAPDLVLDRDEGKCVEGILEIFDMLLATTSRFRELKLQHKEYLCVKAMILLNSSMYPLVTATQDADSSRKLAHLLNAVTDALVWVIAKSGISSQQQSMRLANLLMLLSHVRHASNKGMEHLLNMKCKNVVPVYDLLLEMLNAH

Row | Compound | Ki (ERα) | pKi (ERβ) | pKi (ERα)
1 | CN(CCCc1ccc(Cl)cc1)c1nc(NCCc2ccc(O)cc2)nc(N2CCNCC2)n1 [Example 1, 4-(2-{[4-[[3-(4-chlorophenyl)propyl](methyl)amino]-6-(1-piperazinyl)-1,3,5-triazin-2-yl]amino}ethyl)phenol] | 339 nM | 7.98 | –
2 | COc1cccc(C(=O)N2CCN(c3nc(NCCc4ccc(O)cc4)nc(N(C)CCCc4ccc(Cl)cc4)n3)CC2)c1 [Example 3, 4-[2-({4-[[3-(4-chlorophenyl)propyl](methyl)amino]-6-[4-(3-methoxybenzoyl)-1-piperazinyl]-1,3,5-triazin-2-yl}amino)ethyl]phenol] | 1780 nM | 7.02 | –
3 | CN(CCCc1ccc(Cl)cc1)c1nc(NCCc2ccc(O)cc2)nc(N2CCN(C(=O)c3ccccn3)CC2)n1 [Example 4, 4-[2-({4-[[3-(4-chlorophenyl)propyl](methyl)amino]-6-[4-(2-pyridinylcarbonyl)-1-piperazinyl]-1,3,5-triazin-2-yl}amino)ethyl]phenol] | 4370 nM | 6.81 | –
4 | CN(CCCc1ccc(Cl)cc1)c1nc(NCCc2ccc(O)cc2)nc(N2CCN(Cc3ccccn3)CC2)n1 [Example 5, 4-[2-({4-[[3-(4-chlorophenyl)propyl](methyl)amino]-6-[4-(2-pyridinylmethyl)-1-piperazinyl]-1,3,5-triazin-2-yl}amino)ethyl]phenol] | – | 7.42 | –
5 | CN(CCCc1ccc(Cl)cc1)c1nc(NCCc2ccc(O)cc2)nc(N2CCN(Cc3cccnc3)CC2)n1 [Example 6, 4-[2-({4-[[3-(4-chlorophenyl)propyl](methyl)amino]-6-[4-(3-pyridinylmethyl)-1-piperazinyl]-1,3,5-triazin-2-yl}amino)ethyl]phenol] | – | 7.50 | –
6 | Cc1nc(CN2CCN(c3nc(NCCc4ccc(O)cc4)nc(N(C)CCCc4ccc(Cl)cc4)n3)CC2)cs1 [Example 7, 4-{2-[(4-[[3-(4-chlorophenyl)propyl](methyl)amino]-6-{4-[(2-methyl-1,3-thiazol-4-yl)methyl]-1-piperazinyl}-1,3,5-triazin-2-yl)amino]ethyl}phenol] | – | 7.73 | –
7 | CN(CCCc1ccc(Cl)cc1)c1nc(NCCc2ccc(O)cc2)nc(N2CCN(/C(=C/C(=O)c3ccccc3)C(F)(F)F)CC2)n1 [Example 8, (2E)-3-[4-(4-[[3-(4-chlorophenyl)propyl](methyl)amino]-6-{[2-(4-hydroxyphenyl)ethyl]amino}-1,3,5-triazin-2-yl)-1-piperazinyl]-4,4,4-trifluoro-1-phenyl-2-buten-1-one] | 1580 nM | 7.08 | –
8 | CN(C)C(=O)CCN1CCN(c2nc(NCCc3ccc(O)cc3)nc(N(C)CCCc3ccc(Cl)cc3)n2)CC1 [Example 9, 3-[4-(4-[[3-(4-chlorophenyl)propyl](methyl)amino]-6-{[2-(4-hydroxyphenyl)ethyl]amino}-1,3,5-triazin-2-yl)-1-piperazinyl]-N,N-dimethylpropanamide] | 355 nM | 7.70 | –
9 | CN1CCN(c2nc(NC3CCc4cc(O)ccc4C3)nc(SCCCc3ccccc3)n2)CC1 (stereo not shown) [Example 10, 6-({4-(4-methyl-1-piperazinyl)-6-[(3-phenylpropyl)sulfanyl]-1,3,5-triazin-2-yl}amino)-5,6,7,8-tetrahydro-2-naphthalenol] | 398 nM | 7.20 | –

Continued, values first:

Row | Ki (ERα) | pKi (ERβ) | pKi (ERα) | Compound
10 | – | 7.64 | – | C=CCN1CCN(c2nc(NCCc3ccc(O)cc3)nc(N(C)CCCc3ccc(Cl)cc3)n2)CC1 [Example 12, 4-[2-({4-(4-ally-1-piperazinyl)-6-[[3-(4-chlorophenyl)propy](methyl)amino]-1,3,5-triazin-2-yl}amino)ethyl]phenol]
11 | 141 nM | 8.00 | – | CN(CCCc1ccc(Cl)cc1)c1nc(NCCc2ccc(O)cc2)nc(N2CCN(C/C=C/c3ccccc3)CC2)n1 [Example 13, 4-{2-[(4-[[3-(4-chlorophenyl)propyl](methyl)amino]-6-{4-[(2E)-3-phenyl-2-propenyl]-1-piperazinyl}-1,3,5-triazin-2-yl)amino]ethyl]phenol]
12 | 562 nM | 7.58 | – | CN(CCCc1ccc(Cl)cc1)c1nc(N(C)CCc2ccc(O)cc2)nc(N2CCNCC2)n1 [Example 14, 4-{2-[[4-[[3-(4-chlorophenyl)propyl](methyl)amino]-6-(1-piperazinyl)-1,3,5-triazin-2-yl](methyl)amino]ethy}phenol]
13 | 380 nM | 7.88 | – | CN1CCN(c2nc(N(C)CCCc3ccc(Cl)cc3)nc(N(C)CCc3ccc(O)cc3)n2)CC1 [Example 15, 4-(2-{[4-[[3-(4-chlorophenyl)propyl](methyl)amino]-6-(4-methyl-1-piperazinyl)-1,3,5-triazin-2-yl](methyl)amino}ethyl)phenol]
14 | 229 nM | 7.96 | – | C[C@@H]1CN(c2nc(N(C)CCCc3ccc(Cl)cc3)nc(N(C)CCc3ccc(O)cc3)n2)C[C@H](C)N1 [Example 16, 4-(2-{[4-[[3-(4-chlorophenyl)propyl](methyl)amino]-6-(3,5-cis-dimethyl-1-piperazinyl)-1,3,5-triazin-2-yl](methyl)amino}ethyl)phenol]
15 | 603 nM | 7.54 | – | CN(CCCc1ccc(Cl)cc1)c1nc(N(C)CCc2ccc(O)cc2)nc(N2CCN(CCO)CC2)n1 [Example 17]
16 | 372 nM | 7.80 | – | CN(CCCc1ccc(F)cc1)c1nc(NCCc2ccc(O)cc2)nc(N2CCNCC2)n1 [Example 18, 4-(2-{[4-[[3-(4-fluorophenyl)propyl](methyl)amino]-6-(1-piperazinyl)-1,3,5-triazin-2-yl]amino}ethyl)phenol]
17 | 550 nM | 7.61 | – | CN(CCCc1ccc(F)cc1)c1nc(N(C)CCc2ccc(O)cc2)nc(N2CCNCC2)n1 [Example 19, 4-(2-{[4-[[3-(4-fluorophenyl)propyl](methyl)amino]-6-(1-piperazinyl)-1,3,5-triazin-2-yl]methylamino}ethyl)phenol]
18 | 562 nM | 7.63 | – | CN1CCN(c2nc(N(C)CCCc3ccc(F)cc3)nc(N(C)CCc3ccc(O)cc3)n2)CC1 [Example 20, 4-(2-{[4-[[3-(4-fluorophenyl)propyl](methyl)amino]-6-(4-methyl-1-piperazinyl)-1,3,5-triazin-2-yl]methylamino}ethyl)phenol]
19 | 214 nM | 7.63 | – | CN(CCCc1ccc(F)c(F)c1)c1nc(N(C)CCc2ccc(O)cc2)nc(N2CCNCC2)n1 [Example 21, 4-(2-{[4-[[3-(3,4-difluorophenyl)propyl](methyl)amino]-6-(1-piperazinyl)-1,3,5-triazin-2-yl]methylamino}ethyl)phenol]
20 | 550 nM | 7.07 | – | CN(CCCc1ccc(C(F)(F)F)cc1)c1nc(N(C)CCc2ccc(O)cc2)nc(N2CCNCC2)n1 [Example 22, 4-(2-{methyl[4-(methyl{3-[4-(trifluoromethyl)phenyl]propyl}amino)-6-(1-piperazinyl)-1,3,5-triazin-2-yl]amino}ethyl)phenol]
21 | 501 nM | 7.48 | – | CN(CCCc1ccc(Cl)cc1Cl)c1nc(N(C)CCc2ccc(O)cc2)nc(N2CCNCC2)n1 [Example 23, 4-(2-{[4-[[3-(2,4-dichlorophenyl)propyl](methyl)amino]-6-(1-piperazinyl)-1,3,5-triazin-2-yl]methylamino}ethyl)phenol]
22 | – | 7.83 | 6.47 | CN(CCCc1ccc(Cl)cc1)c1nc(NCCc2ccc(O)cc2)nc(N2CCN(CCO)CC2)n1 [Example 24, 4-[2-({4-[[3-(4-chlorophenyl)propyl](methyl)amino]-6-[4-(2-hydroxyethyl)-1-piperazinyl]-1,3,5-triazin-2-yl}amino)ethyl]phenol]
